Source: US9499550B2 (BRISTOL-MYERS SQUIBB COMPANY, priority 2012, dated 2016)
Where two headings read alike, the source gives them in different places.

Assays:
[1] = tested on: HCV genotype 1b (Con1) replicon in HUH-7 cells; test: HCV replicon luciferase reporter assay, genotype 1b; type: cell-based; conditions: Hepatitis C virus, Huh-7, 72 h, HCV genotype 1b replicon luciferase assay, 3 days incubation, range class, read-out: LE_1b (EC50, range)
Procedure, shortened: (§1)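 Replicon inhibition for both genotypes was measured as Renilla luciferase signal (EnduRen, 7.5 μM final, 2 h) after 3-day, 37° C exposure of replicon-bearing HUH-7 cells in 4% FCS DMEM, 0.5% DMSO. The 1b construct carries S1179I; the 1a H77 construct carries P1496L and S2204I. Twenty-point, 3-fold dilutions were fitted four-parametrically for EC50, and CC50 was taken from multiplexed Cell Titer-Blue.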

[2] = tested on: HCV genotype 1a (H77 strain) replicon in HUH-7 cells; test: HCV replicon luciferase reporter assay, genotype 1a; type: cell-based; conditions: Hepatitis C virus, Huh-7, 72 h, HCV genotype 1a replicon luciferase assay, 3 days incubation, range class, read-out: LE_1a (EC50, range)
Procedure, shortened: as §1

| Compound | EC50 [1] [nM] | EC50 [2] [nM] | EC50 ([1]; GETYPE1B) [nM] | EC50 ([2]; GETYPE1A) [nM] |
| --- | --- | --- | --- | --- |
| COc1ccc2c(O[C@@H]3C[C@H]4C(=O)N[C@]5(C(=O)NS(=O)(=O)C6CC6)C[C@H]5/C=C\CC[C@H](C)C[C@@H](C)[C@H](NC(=O)OC(C)(C)C)C(=O)N4C3)nc(-c3ccc(OC(C)C)cc3)nc2c1 [Compound 3016, tert-butyl ((2R,6S,7R,9S,13aS,14aR,16aS,Z)-14a-((cyclopropylsulfonyl)carbamoyl)-2-((2-(4-isopropoxyphenyl)-7-methoxyquinazolin-4-yl)oxy)-7,9-dimethyl-5,16-dioxo-1,2,3,5,6,7,8,9,10,11,13a,14,14a,15,16,16a-hexadecahydrocyclopropa[e]pyrrolo[1,2-a][1,4]diazacyclopentadecin-6-yl)carbamate] | < 5.46 | < 5.46 | – | – |
| COc1ccc2c(O[C@@H]3C[C@H]4C(=O)N[C@]5(C(=O)NS(=O)(=O)C6CC6)C[C@H]5/C=C\CC[C@@H](C)C[C@@H](C)[C@H](NC(=O)OC(C)(C)C)C(=O)N4C3)nc(-c3ccc(OC(C)C)cc3)nc2c1 [Compound 3017, tert-butyl ((2R,6S,7R,9R,13aS,14aR,16aS,Z)-14a-((cyclopropylsulfonyl)carbamoyl)-2-((2-(4-isopropoxyphenyl)-7-methoxyquinazolin-4-yl)oxy)-7,9-dimethyl-5,16-dioxo-1,2,3,5,6,7,8,9,10,11,13a,14,14a,15,16,16a-hexadecahydrocyclopropa[e]pyrrolo[1,2-a][1,4]diazacyclopentadecin-6-yl)carbamate] | < 5.46 | < 5.46 | – | – |
| COc1ccc2c(O[C@@H]3C[C@H]4C(=O)N[C@]5(C(=O)NS(=O)(=O)C6(CF)CC6)C[C@H]5/C=C\CC[C@H](C)C[C@@H](C)[C@H](NC(=O)OC(C)(C)C(F)(F)F)C(=O)N4C3)nc(N3CCCC3)nc2c1 [Compound 3018, 1,1,1-trifluoro-2-methylpropan-2-yl((2R,6S,7R,9S,13aS,14aR,16aS,Z)-14a-(((1-(fluoromethyl)cyclopropyl)sulfonyl)carbamoyl)-2-((7-methoxy-2-(pyrrolidin-1-yl)quinazolin-4-yl)oxy)-7,9-dimethyl-5,16-dioxo-1,2,3,5,6,7,8,9,10,11,13a,14,14a,15,16,16a-hexadecahydrocyclopropa[e]pyrrolo[1,2-a][1,4]diazacyclopentadecin-6-yl)carbamate] | 4.82 to 103 | 4.82 to 103 | – | – |
| COc1ccc2c(O[C@@H]3C[C@H]4C(=O)N[C@]5(C(=O)NS(=O)(=O)C6(CF)CC6)C[C@H]5/C=C\CC[C@@H](C)C[C@@H](C)[C@H](NC(=O)OC(C)(C)C(F)(F)F)C(=O)N4C3)nc(N3CCCC3)nc2c1 [Compound 3019, 1,1,1-trifluoro-2-methylpropan-2-yl((2R,6S,7R,9R,13aS,14aR,16aS,Z)-14a-(((1-(fluoromethyl)cyclopropyl)sulfonyl)carbamoyl)-2-((7-methoxy-2-(pyrrolidin-1-yl)quinazolin-4-yl)oxy)-7,9-dimethyl-5,16-dioxo-1,2,3,5,6,7,8,9,10,11,13a,14,14a,15,16,16a-hexadecahydrocyclopropa[e]pyrrolo[1,2-a][1,4]diazacyclopentadecin-6-yl)carbamate] | < 5.46 | 4.82 to 103 | – | – |
| COc1ccc2c(O[C@@H]3C[C@H]4C(=O)N[C@]5(C(=O)NS(=O)(=O)C6(CF)CC6)C[C@H]5/C=C\CC[C@@H](C)C[C@@H](C)[C@H](NC(=O)OC(C)(C)C(F)(F)F)C(=O)N4C3)nc(OC)nc2c1 [Compound 3020] | – | – | < 5.46 | 4.82 to 103 |
| COc1ccc2c(O[C@@H]3C[C@H]4C(=O)N[C@]5(C(=O)NS(=O)(=O)C6CC6)C[C@H]5/C=C\CC[C@H](C)C[C@@H](C)[C@H](NC(=O)OC(C)(C)C(F)(F)F)C(=O)N4C3)nc(-c3ccc(OC(C)C)cc3)nc2c1 [Compound 3021, 1,1,1-trifluoro-2-methylpropan-2-yl((2R,6S,7R,9S,13aS,14aR,16aS,Z)-14a-((cyclopropylsulfonyl)carbamoyl)-2-((2-(4-isopropoxyphenyl)-7-methoxyquinazolin-4-yl)oxy)-7,9-dimethyl-5,16-dioxo-1,2,3,5,6,7,8,9,10,11,13a,14,14a,15,16,16a-hexadecahydrocyclopropa[e]pyrrolo[1,2-a][1,4]diazacyclopentadecin-6-yl)carbamate] | < 5.46 | < 5.46 | – | – |
| COc1ccc2c(O[C@@H]3C[C@H]4C(=O)N[C@]5(C(=O)NS(=O)(=O)C6CC6)C[C@H]5/C=C\CC[C@@H](C)C[C@@H](C)[C@H](NC(=O)OC(C)(C)C(F)(F)F)C(=O)N4C3)nc(-c3ccc(OC(C)C)cc3)nc2c1 [Compound 3022, 1,1,1-trifluoro-2-methylpropan-2-yl((2R,6S,7R,9R,13aS,14aR,16aS,Z)-14a-((cyclopropylsulfonyl)carbamoyl)-2-((2-(4-isopropoxyphenyl)-7-methoxyquinazolin-4-yl)oxy)-7,9-dimethyl-5,16-dioxo-1,2,3,5,6,7,8,9,10,11,13a,14,14a,15,16,16a-hexadecahydrocyclopropa[e]pyrrolo[1,2-a][1,4]diazacyclopentadecin-6-yl)carbamate] | < 5.46 | < 5.46 | – | – |
| CC[C@@H]1C[C@@H](C)CC/C=C\[C@@H]2C[C@@]2(C(=O)NS(=O)(=O)C2(C)CC2)NC(=O)[C@@H]2C[C@@H](Oc3nccc4c(OC)cccc34)CN2C(=O)[C@H]1NC(=O)OC(C)(C)C [Compound 3023, tert-butyl ((2R,6S,7R,9S,13aS,14aR,16aS,Z)-7-ethyl-2-((5-methoxyisoquinolin-1-yl)oxy)-9-methyl-14a-(((1-methylcyclopropyl)sulfonyl)carbamoyl)-5,16-dioxo-1,2,3,5,6,7,8,9,10,11,13a,14,14a,15,16,16a-hexadecahydrocyclopropa[e]pyrrolo[1,2-a][1,4]diazacyclopentadecin-6-yl)carbamate] | 4.82 to 103 | 4.82 to 103 | – | – |
| CC[C@@H]1C[C@H](C)CC/C=C\[C@@H]2C[C@@]2(C(=O)NS(=O)(=O)C2(C)CC2)NC(=O)[C@@H]2C[C@@H](Oc3nccc4c(OC)cccc34)CN2C(=O)[C@H]1NC(=O)OC(C)(C)C [Compound 3024, tert-butyl ((2R,6S,7R,9R,13aS,14aR,16aS,Z)-7-ethyl-2-((5-methoxyisoquinolin-1-yl)oxy)-9-methyl-14a-(((1-methylcyclopropyl)sulfonyl)carbamoyl)-5,16-dioxo-1,2,3,5,6,7,8,9,10,11,13a,14,14a,15,16,16a-hexadecahydrocyclopropa[e]pyrrolo[1,2-a][1,4]diazacyclopentadecin-6-yl)carbamate] | < 5.46 | < 5.46 | – | – |
| CC[C@@H]1C[C@@H](C)CC/C=C\[C@@H]2C[C@@]2(C(=O)NS(=O)(=O)C2CC2)NC(=O)[C@@H]2C[C@@H](Oc3nccc4c(OC)cccc34)CN2C(=O)[C@H]1NC(=O)OC(C)(C)C [Compound 3025, tert-butyl ((2R,6S,7R,9S,13aS,14aR,16aS,Z)-14a-((cyclopropylsulfonyl)carbamoyl)-7-ethyl-2-((5-methoxyisoquinolin-1-yl)oxy)-9-methyl-5,16-dioxo-1,2,3,5,6,7,8,9,10,11,13a,14,14a,15,16,16a-hexadecahydrocyclopropa[e]pyrrolo[1,2-a][1,4]diazacyclopentadecin-6-yl)carbamate] | 4.82 to 103 | 4.82 to 103 | – | – |
| CC[C@@H]1C[C@H](C)CC/C=C\[C@@H]2C[C@@]2(C(=O)NS(=O)(=O)C2CC2)NC(=O)[C@@H]2C[C@@H](Oc3nccc4c(OC)cccc34)CN2C(=O)[C@H]1NC(=O)OC(C)(C)C [Compound 3026, tert-butyl ((2R,6S,7R,9R,13aS,14aR,16aS,Z)-14a-((cyclopropylsulfonyl)carbamoyl)-7-ethyl-2-((5-methoxyisoquinolin-1-yl)oxy)-9-methyl-5,16-dioxo-1,2,3,5,6,7,8,9,10,11,13a,14,14a,15,16,16a-hexadecahydrocyclopropa[e]pyrrolo[1,2-a][1,4]diazacyclopentadecin-6-yl)carbamate] | < 5.46 | < 5.46 | – | – |
| CC[C@@H]1C[C@@H](C)CC/C=C\[C@@H]2C[C@@]2(C(=O)NS(=O)(=O)C2(C)CC2)NC(=O)[C@@H]2C[C@@H](Oc3nccc4c(OC)cccc34)CN2C(=O)[C@H]1NC(=O)OC(C)(C)C(F)(F)F [Compound 3027, 1,1,1-trifluoro-2-methylpropan-2-yl((2R,6S,7R,9S,13aS,14aR,16aS,Z)-7-ethyl-2-((5-methoxyisoquinolin-1-yl)oxy)-9-methyl-14a-(((1-methylcyclopropyl)sulfonyl)carbamoyl)-5,16-dioxo-1,2,3,5,6,7,8,9,10,11,13a,14,14a,15,16,16a-hexadecahydrocyclopropa[e]pyrrolo[1,2-a][1,4]diazacyclopentadecin-6-yl)carbamate] | 4.82 to 103 | 4.82 to 103 | – | – |
| CC[C@@H]1C[C@H](C)CC/C=C\[C@@H]2C[C@@]2(C(=O)NS(=O)(=O)C2(C)CC2)NC(=O)[C@@H]2C[C@@H](Oc3nccc4c(OC)cccc34)CN2C(=O)[C@H]1NC(=O)OC(C)(C)C(F)(F)F [Compound 3028, 1,1,1-trifluoro-2-methylpropan-2-yl((2R,6S,7R,9R,13aS,14aR,16aS,Z)-7-ethyl-2-((5-methoxyisoquinolin-1-yl)oxy)-9-methyl-14a-(((1-methylcyclopropyl)sulfonyl)carbamoyl)-5,16-dioxo-1,2,3,5,6,7,8,9,10,11,13a,14,14a,15,16,16a-hexadecahydrocyclopropa[e]pyrrolo[1,2-a][1,4]diazacyclopentadecin-6-yl)carbamate] | < 5.46 | < 5.46 | – | – |
